From ChEMBL document CHEMBL5715945 (Cancer Biol Ther, 2010)
Calls of active or inactive are those of the source. The rule behind the calls is not given here.

Legend:
[1] = molecular target: Proto-oncogene tyrosine-protein kinase receptor Ret (Homo sapiens) (UniProt P07949); assay: Inhibition of Ret (unknown origin) at 1 uM relative to control; values are per cent of control
4T1 [2] = assay: Inhibition of cell migration in mouse 4T1 cells assessed as maximal efficacy at 0.4 uM incubated for 4 hrs by millicell-motility assay; assay type: functional
[3] = molecular target: RAF proto-oncogene serine/threonine-protein kinase (Homo sapiens) (UniProt P04049); assay: Inhibition of c-RAF (unknown origin) at 0.1 uM relative to control; values are per cent of control
Sequence of RAF proto-oncogene serine/threonine-protein kinase (Homo sapiens) (P04049 whole entry): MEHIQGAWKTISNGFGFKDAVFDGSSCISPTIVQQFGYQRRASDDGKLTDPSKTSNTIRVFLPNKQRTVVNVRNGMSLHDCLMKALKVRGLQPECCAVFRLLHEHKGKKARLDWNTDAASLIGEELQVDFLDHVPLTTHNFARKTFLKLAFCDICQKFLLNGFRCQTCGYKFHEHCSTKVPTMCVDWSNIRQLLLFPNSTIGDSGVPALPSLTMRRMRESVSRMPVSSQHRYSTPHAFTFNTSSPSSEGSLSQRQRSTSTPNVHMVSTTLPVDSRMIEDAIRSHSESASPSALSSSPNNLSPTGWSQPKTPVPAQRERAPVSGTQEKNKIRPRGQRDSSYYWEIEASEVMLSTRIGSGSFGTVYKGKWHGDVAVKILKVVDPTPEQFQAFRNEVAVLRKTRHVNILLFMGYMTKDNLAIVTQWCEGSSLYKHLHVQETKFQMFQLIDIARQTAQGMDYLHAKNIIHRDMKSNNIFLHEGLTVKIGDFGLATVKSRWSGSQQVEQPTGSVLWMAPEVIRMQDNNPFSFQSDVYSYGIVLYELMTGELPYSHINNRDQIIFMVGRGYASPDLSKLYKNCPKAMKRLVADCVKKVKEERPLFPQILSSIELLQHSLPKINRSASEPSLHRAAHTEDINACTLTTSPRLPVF

4T1 [4] = assay: Induction of cell cycle arrest in mouse 4T1 adherent cells assessed as accumulation at G2/M phase at 1 uM measured after 72 hrs by PI staining based flow cytometry analysis (reference value: 7.9%); assay type: functional
4T1 [5] = assay: Induction of cell cycle arrest in mouse 4T1 adherent cells assessed as accumulation at S phase at 1 uM measured after 72 hrs by PI staining based flow cytometry analysis (reference value: 15.3%); assay type: functional
[6] = molecular target: Insulin-like growth factor 1 receptor (Homo sapiens) (UniProt P08069); assay: Inhibition of IGF-1R (unknown origin) at 1 uM relative to control; values are per cent of control
[7] = molecular target: Mast/stem cell growth factor receptor Kit (Homo sapiens) (UniProt P10721); assay: Inhibition of c-kit (unknown origin) at 1 uM relative to control; values are per cent of control
4T1 [8] = assay: Effect on p130Cas phosphorylation at Tyr249 residue in mouse 4T1 cultured as 3D spheroids at 0.1 uM incubated for 24 hrs by immunoblotting analysis; assay type: functional, cell-based
4T1 [9] = assay: Antiproliferative activity against mouse 4T1 cells cultured as 3D spheroids assessed as maximal effect at 0.2 uM measured after 72 hrs by phase contrast microscopic analysis; assay type: functional, cell-based
[10] = molecular target: Insulin receptor (Homo sapiens) (UniProt P06213); assay: Inhibition of IR (unknown origin) at 0.1 uM relative to control; values are per cent of control
4T1 [11] = assay: Induction of cell cycle arrest in mouse 4T1 adherent cells assessed as accumulation at G2/M phase at 1 uM measured after 72 hrs by PI staining based flow cytometry analysis (reference value: 5.6%); assay type: functional
[12] = molecular target: Tyrosine-protein kinase JAK2 (Homo sapiens) (UniProt O60674); assay: Inhibition of JAK2 (unknown origin) at 1 uM relative to control; values are per cent of control
Sequence of Tyrosine-protein kinase JAK2 (Homo sapiens) (O60674 whole entry): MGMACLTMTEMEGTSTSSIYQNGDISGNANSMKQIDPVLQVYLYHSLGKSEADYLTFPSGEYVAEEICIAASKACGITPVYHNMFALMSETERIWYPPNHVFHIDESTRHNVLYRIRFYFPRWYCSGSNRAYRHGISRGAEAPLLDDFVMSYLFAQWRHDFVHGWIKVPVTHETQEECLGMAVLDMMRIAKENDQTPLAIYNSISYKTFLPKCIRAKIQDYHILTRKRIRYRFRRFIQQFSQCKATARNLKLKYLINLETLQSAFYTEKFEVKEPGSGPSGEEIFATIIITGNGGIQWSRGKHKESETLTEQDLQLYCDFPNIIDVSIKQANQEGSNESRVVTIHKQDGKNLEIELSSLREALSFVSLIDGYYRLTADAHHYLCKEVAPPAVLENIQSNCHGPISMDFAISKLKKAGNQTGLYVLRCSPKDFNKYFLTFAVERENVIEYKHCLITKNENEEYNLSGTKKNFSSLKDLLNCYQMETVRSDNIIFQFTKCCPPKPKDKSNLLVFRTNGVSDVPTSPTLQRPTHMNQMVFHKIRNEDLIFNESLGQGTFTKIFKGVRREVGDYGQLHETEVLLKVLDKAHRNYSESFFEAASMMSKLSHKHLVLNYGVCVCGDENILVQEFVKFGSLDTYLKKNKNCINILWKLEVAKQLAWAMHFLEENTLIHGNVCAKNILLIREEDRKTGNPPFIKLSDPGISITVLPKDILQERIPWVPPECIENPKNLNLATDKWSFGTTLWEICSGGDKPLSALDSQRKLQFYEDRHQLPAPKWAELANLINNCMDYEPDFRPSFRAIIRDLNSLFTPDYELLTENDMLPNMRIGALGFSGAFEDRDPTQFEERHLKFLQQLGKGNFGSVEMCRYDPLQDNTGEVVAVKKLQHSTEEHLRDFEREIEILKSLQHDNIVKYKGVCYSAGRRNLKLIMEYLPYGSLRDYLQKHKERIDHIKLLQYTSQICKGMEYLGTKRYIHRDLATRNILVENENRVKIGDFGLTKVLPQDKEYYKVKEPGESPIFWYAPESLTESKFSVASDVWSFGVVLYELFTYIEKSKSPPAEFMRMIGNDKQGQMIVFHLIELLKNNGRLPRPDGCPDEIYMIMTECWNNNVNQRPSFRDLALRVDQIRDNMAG

[13] = molecular target: Proto-oncogene tyrosine-protein kinase Src (Homo sapiens) (UniProt P12931); assay: Inhibition of c-SRC (unknown origin) at 0.1 uM relative to control; values are per cent of control
Sequence of Proto-oncogene tyrosine-protein kinase Src (Homo sapiens) (P12931 2-536 limits assumed): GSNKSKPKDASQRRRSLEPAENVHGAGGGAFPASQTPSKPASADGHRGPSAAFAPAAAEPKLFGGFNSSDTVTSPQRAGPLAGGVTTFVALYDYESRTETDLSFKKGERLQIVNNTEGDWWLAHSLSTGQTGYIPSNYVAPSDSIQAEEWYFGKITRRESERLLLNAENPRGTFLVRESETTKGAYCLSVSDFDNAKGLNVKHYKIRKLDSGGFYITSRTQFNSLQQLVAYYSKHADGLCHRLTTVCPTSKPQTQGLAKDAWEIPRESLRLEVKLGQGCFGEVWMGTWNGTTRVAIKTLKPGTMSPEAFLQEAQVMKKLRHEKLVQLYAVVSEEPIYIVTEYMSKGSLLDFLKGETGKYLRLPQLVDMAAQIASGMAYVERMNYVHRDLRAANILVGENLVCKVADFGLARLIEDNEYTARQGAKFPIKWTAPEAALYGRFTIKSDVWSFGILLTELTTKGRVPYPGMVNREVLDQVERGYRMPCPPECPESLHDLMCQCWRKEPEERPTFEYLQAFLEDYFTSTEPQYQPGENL

[14] = molecular target: Epidermal growth factor receptor (Homo sapiens) (UniProt P00533); assay: Inhibition of EGFR (unknown origin) at 1 uM relative to control; values are per cent of control
[15] = molecular target: Aurora kinase A (Homo sapiens) (UniProt O14965); assay: Inhibition of Aurora-A (unknown origin) at 1 uM relative to control
[16] = molecular target: High affinity nerve growth factor receptor (Homo sapiens) (UniProt P04629); assay: Inhibition of TrkA (unknown origin) at 0.1 uM relative to control; values are per cent of control
[17] = molecular target: Focal adhesion kinase 1 (Mus musculus) (UniProt P34152); assay: Inhibition of FAK phosphorylation at Tyr397 residue in mouse 4T1 cells harbouring mCherry red fluorescent protein at 0.1 to 1 uM incubated for 1 hr by immunoblotting analysis; assay type: cell-based; settings: dose 0.1-1 µM
[18] = molecular target: Fibroblast growth factor receptor 1 (Homo sapiens) (UniProt P11362); assay: Inhibition of FGFR1 (unknown origin) at 0.1 uM relative to control; values are per cent of control
Sequence of Fibroblast growth factor receptor 1 (Homo sapiens) (P11362 22-822 limits assumed): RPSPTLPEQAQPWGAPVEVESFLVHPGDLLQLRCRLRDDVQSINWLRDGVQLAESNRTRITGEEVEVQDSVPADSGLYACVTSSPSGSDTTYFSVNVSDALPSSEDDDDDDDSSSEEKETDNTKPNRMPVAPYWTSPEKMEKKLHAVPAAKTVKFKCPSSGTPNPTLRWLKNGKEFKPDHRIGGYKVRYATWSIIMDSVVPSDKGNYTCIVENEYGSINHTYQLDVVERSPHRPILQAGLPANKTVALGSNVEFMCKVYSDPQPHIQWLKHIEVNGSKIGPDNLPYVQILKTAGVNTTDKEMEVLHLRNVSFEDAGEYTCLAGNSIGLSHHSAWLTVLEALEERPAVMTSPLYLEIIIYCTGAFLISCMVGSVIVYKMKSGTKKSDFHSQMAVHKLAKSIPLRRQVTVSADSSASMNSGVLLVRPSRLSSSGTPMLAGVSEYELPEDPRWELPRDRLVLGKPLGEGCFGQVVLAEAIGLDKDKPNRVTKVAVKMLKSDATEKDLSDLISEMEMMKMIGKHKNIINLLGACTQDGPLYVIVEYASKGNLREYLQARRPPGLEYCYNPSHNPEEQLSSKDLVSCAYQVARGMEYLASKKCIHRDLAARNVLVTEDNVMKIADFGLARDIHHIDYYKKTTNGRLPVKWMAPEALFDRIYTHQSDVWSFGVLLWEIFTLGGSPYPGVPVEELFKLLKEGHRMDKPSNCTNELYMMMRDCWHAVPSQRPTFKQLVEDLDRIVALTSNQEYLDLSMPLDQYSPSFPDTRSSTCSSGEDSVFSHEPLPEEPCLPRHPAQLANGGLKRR

[19] = molecular target: Dual specificity mitogen-activated protein kinase kinase 1 (Homo sapiens) (UniProt Q02750); assay: Inhibition of MEK1 (unknown origin) at 1 uM relative to control; values are per cent of control
Sequence of Dual specificity mitogen-activated protein kinase kinase 1 (Homo sapiens) (Q02750 whole entry): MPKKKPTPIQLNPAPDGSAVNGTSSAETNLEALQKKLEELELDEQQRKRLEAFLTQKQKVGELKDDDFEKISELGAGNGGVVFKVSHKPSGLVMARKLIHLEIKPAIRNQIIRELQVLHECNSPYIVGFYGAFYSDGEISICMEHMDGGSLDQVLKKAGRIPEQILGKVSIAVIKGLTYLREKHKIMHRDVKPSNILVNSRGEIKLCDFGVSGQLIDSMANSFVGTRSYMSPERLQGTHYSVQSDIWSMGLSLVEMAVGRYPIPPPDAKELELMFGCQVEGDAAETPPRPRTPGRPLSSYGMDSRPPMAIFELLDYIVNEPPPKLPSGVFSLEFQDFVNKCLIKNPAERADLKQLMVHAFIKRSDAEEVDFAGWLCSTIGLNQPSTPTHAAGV

[20] = molecular target: RAF proto-oncogene serine/threonine-protein kinase (Homo sapiens) (UniProt P04049); assay: Inhibition of c-RAF (unknown origin) at 1 uM relative to control; values are per cent of control
4T1 [21] = assay: Antiproliferative activity against mouse 4T1 cells cultured as 3D spheroids assessed as fold reduction in average spheroid size at 0.1 uM measured after 72 hrs by phase contrast microscopic analysis; assay type: functional
[22] = molecular target: Angiopoietin-1 receptor (Homo sapiens) (UniProt Q02763); assay: Inhibition of Tie2 (unknown origin) at 0.1 uM relative to control; values are per cent of control
[23] = molecular target: Serine/threonine-protein kinase Nek6 (Homo sapiens) (UniProt Q9HC98); assay: Inhibition of NEK6 (unknown origin) at 0.1 uM relative to control; values are per cent of control
Sequence of Serine/threonine-protein kinase Nek6 (Homo sapiens) (Q9HC98 whole entry): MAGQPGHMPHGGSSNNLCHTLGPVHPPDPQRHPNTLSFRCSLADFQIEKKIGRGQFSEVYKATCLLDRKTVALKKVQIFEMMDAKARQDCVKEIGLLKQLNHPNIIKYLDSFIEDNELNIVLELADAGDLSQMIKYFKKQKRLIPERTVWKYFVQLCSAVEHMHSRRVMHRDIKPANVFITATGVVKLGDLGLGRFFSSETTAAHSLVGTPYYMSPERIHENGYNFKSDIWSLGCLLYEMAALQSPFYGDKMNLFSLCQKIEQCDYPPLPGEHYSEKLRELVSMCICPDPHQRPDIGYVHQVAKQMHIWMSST

4T1 [24] = assay: Induction of apoptosis in mouse 4T1 suspended cells at 0.1 uM incubated for 72 hrs by PI staining based flow cytometry analysis; assay type: functional, cell-based
[25] = molecular target: Proto-oncogene tyrosine-protein kinase receptor Ret (Homo sapiens) (UniProt P07949); assay: Inhibition of Ret (unknown origin) at 0.1 uM relative to control; values are per cent of control
[26] = molecular target: Tyrosine-protein kinase Lck (Homo sapiens) (UniProt P06239); assay: Inhibition of Lck (unknown origin) at 1 uM relative to control; values are per cent of control
[27] = molecular target: Tyrosine-protein kinase ABL1 (Homo sapiens) (UniProt P00519); assay: Inhibition of Abl (unknown origin) at 0.1 uM relative to control; values are per cent of control
4T1 [28] = assay: Inhibition of cell migration in mouse 4T1 cells incubated for 4 hrs by millicell-motility assay; assay type: functional, cell-based; settings: dose 0.1-1 µM
4T1 [29] = assay: Antitumor activity against mouse 4T1 cells harbouring mCherry red fluorescent protein implanted in BALB/c mouse assessed as increase in apoptosis in tumor at 30 to 100 mg/kg, sc bid measured after 5 days by TUNEL staining based microscopic analysis; assay type: functional, organism-based; settings: dose 30-100 mg/kg, time 5.0 day
[30] = molecular target: Protein kinase C alpha type (Homo sapiens) (UniProt P17252); assay: Inhibition of PKCa (unknown origin) at 1 uM relative to control; values are per cent of control
4T1 [31] = assay: Induction of cell cycle arrest in mouse 4T1 adherent cells assessed as accumulation at G0/G1 phase at 1 uM measured after 72 hrs by PI staining based flow cytometry analysis (reference value: 81.3%); assay type: functional

Sequence of Proto-oncogene tyrosine-protein kinase receptor Ret (Homo sapiens) (P07949 whole entry): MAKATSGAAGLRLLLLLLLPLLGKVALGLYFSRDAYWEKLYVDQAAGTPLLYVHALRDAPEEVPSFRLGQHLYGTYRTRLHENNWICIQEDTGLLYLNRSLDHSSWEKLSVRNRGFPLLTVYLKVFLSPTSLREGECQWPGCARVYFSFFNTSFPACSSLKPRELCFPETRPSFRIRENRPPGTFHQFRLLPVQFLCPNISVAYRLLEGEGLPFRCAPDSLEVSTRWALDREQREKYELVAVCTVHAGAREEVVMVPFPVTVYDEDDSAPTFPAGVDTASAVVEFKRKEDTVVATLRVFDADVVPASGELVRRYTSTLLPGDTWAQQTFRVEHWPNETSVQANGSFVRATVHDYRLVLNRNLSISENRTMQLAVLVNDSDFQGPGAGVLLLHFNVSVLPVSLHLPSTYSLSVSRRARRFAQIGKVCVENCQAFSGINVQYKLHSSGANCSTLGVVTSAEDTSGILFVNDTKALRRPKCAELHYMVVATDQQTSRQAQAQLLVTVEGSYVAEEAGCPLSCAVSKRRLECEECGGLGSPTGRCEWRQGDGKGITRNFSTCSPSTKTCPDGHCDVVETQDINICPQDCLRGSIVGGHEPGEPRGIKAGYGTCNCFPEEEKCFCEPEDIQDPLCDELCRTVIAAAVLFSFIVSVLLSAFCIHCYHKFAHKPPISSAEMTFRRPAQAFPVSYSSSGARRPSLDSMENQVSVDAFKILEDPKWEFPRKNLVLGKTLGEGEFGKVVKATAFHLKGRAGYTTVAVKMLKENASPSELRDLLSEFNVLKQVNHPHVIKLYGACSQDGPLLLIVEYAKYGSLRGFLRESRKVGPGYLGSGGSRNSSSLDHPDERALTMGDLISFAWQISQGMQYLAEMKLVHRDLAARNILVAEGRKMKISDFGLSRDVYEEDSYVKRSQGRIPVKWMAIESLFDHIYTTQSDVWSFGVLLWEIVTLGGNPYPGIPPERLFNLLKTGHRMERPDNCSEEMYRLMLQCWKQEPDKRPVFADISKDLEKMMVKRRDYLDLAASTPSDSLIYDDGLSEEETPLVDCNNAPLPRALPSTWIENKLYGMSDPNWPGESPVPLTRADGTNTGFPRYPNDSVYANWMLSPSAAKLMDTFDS

residual activity [1]: 67%
residual activity [3]: 142%
residual activity [6]: 110%
residual activity [7]: 122%
residual activity [10]: 84%
residual activity [12]: 96%
residual activity [13]: 98%
residual activity [14]: 106%
inhibition [15]: 8%
residual activity [16]: 80%
inhibition [17]: Active
residual activity [18]: 98%
residual activity [19]: 79%
residual activity [20]: 150%
residual activity [22]: 97%
residual activity [23]: 110%
residual activity [25]: 86%
residual activity [26]: 32%
residual activity [27]: 104%
residual activity [30]: 96%
SMILES: CNC(=O)c1ccccc1Nc1cc(Nc2ccc(N3CCOCC3)cc2OC)ncc1C(F)(F)F [VS-4718]
Imax (4T1 [2]): ~60%
Activity (4T1 [4]): 10.5%
Activity (4T1 [5]): 23.8%
Activity (4T1 [8]): Active
Activity (4T1 [9]): Active
Activity (4T1 [11]): 5.6%
fold change (FC) (4T1 [21]): ~3
Activity (4T1 [24]): Active
inhibition (4T1 [28]): Dose-Dependent Effect
Activity (4T1 [29]): Active
Activity (4T1 [31]): 84.4%
